Key:
[1] = tested on: γ-H2AX in Hep3B xenografts; test: γ-H2AX fluorescence immunohistochemistry in Hep3B xenografts; assay type: in vivo, mouse
Description: (30A) Sites of DNA damage were evaluated using fluorescence immunohistochemistry for γ-H2AX. Also note the increased nuclear fragmentation in the DAPI channel for combination therapy groups.
Tumor tissues harvested at the end of the experiment were fixed in 10% buffered formalin (pH 7.0) for 24 hours and subsequently stored in 70% ethanol (v/v) before embedding them in paraffin. For immunohistochemistry, 5-micron sections were placed on a glass slide and tissue sections were de-paraffinized and rehydrated. Antigen retrieval was performed in citrate buffer at pH 6.0. The slides were placed in Tris-buffer (pH 8.0) before further processing.
For fluorescence immunohistochemistry, a protocol similar to that used for immunocytochemistry (described above) was used with some modifications described here. Tris-buffer was removed and tumor section was encircled using a pap pen (Electron microscopy sciences, Hatfield, Pa.). For blocking, 5% (w/v) BSA and 3% (v/v) NGS was used instead of 3% BSA and 1% NGS, respectively. Imaging was performed as for immunocytochemistry.
Development of mouse models and details of RF exposure and thermography are discussed in FIGS. 25 and 26. Mice bearing Hep3B orthotopic tumors were randomized to one of five groups: untreated, RF exposure alone, gemcitabine alone, gemcitabine followed 24 hours later by RF exposure, or RF exposure immediately followed by gemcitabine. The treatments were administered twice a week for three weeks for a total of six treatments. The gemcitabine dose administered was […] or 150 mg/kg/week. This is approximately half the dose used in humans (1000 mg/m2/week dose in a 1.7 m human=˜300 mg/kg/week dose in a mouse). Twenty-four hours after the last treatment, mice were killed and tumors were harvested, weighed, and fixed in formalin for later analysis (FIG. 19A). […]

Hep3B cells = test: Cell cycle analysis (BrdU flow cytometry) in Hep3B cells; assay type: cell-based, human
Description: For cell cycle analysis a BrdU-labeling protocol from BrdU Flow Kit (BD Pharmingen, San Diego, Calif.) was used according to the supplied instructions. Data was analyzed using FlowJo 7.63 (Tree Star, Inc., Ashland, Oreg.). For cell cycle analysis, a BrdU-labeling protocol was used to identify cells in S-phase of the cell cycle accurately. Cells were harvested from an exponentially growing culture as described for other experiments and seeded in 6-well plates, approximately 150,000 cells per well. After 24-hours adherent sub-confluent monolayers were noted and cells were exposed to various experimental conditions. At the end of the treatments, cells were washed and sampled at various time points to study the progression of the cell cycle in time. One hour before each time point, cells were pulsed with BrdU (10 μM) for 1 hour. BrdU gets incorporated in the DNA of cells in S-phase along with other nucleotides and can be detected using a mouse FITC conjugated anti-BrdU antibody. A BrdU Flow Kit (BD Pharmingen, San Diego, Calif.) was used according to the supplied instructions without modifications. For counterstaining of DNA content, cells were incubated with 7-amino-actinomycin D (7-AAD) supplied with the kit, on ice for 20 minutes before analysis on a BD LSR II flowcytometer (BD biosciences San Jose, Calif.). Single cell populations were identified using forward and side-scatter profiles. A total of 10,000 events were recorded from a gated single cell population. For 7-AAD fluorescence measurements, a SORP YG laser (561 nm) was used to excite the cells and emission was recorded through a 630LP filter followed by a 660/20 filter. For FITC fluorescence measurements, a SORP blue laser (488 nm) was used to excite the cells and emission was recorded through 505LP filter followed by a 525/50 filter. There was no spectral over-lap between the two emission spectra and compensation was not required. Data was analyzed using FlowJo 7.63 (Tree Star, Inc., Ashland, Oreg.). […] Cell cycle progression was analyzed over time (FIGS. 16 and 17). […]

For `Nc1ccn([C@@H]2O[C@H](CO)[C@@H](O)C2(F)F)c(=O)n1` [gemcitabine, 2′,2′-difluoro 2′-deoxycytidine], the “Mean γ-H2AX positive pixels/HPF [±SD]” value ([1]; RF then gemcitabine) was 45430±18980 pixels/HPF, the “Mean γ-H2AX positive pixels/HPF [±SD]” value ([1]; gemcitabine alone) was 27258±8022 pixels/HPF and the “Mean γ-H2AX positive pixels/HPF [±SD]” value ([1]; gemcitabine then RF) was 46968±10284 pixels/HPF. The “cell cycle progression, gemcitabine followed by hyperthermia compared with gemcitabine alone” value (Hep3B cells; 1 μM 24 hours, last two hours at 42.5° C.) was “much slower progression through late-S and G2/M phases”, the cell cycle progression (Hep3B cells; 1 μM gemcitabine, 24-hour incubation) was “completely halts cell cycle progression” and the “cell cycle recovery once gemcitabine is removed” value (Hep3B cells; after 24 hours 1 μM gemcitabine) was “cells resume synchronized DNA synthesis in 24 hours”.

— patent US20170209579A1, “NON-INVASIVE RADIOFREQUENCY FIELD TREATMENT FOR CANCER THERAPY” (Baylor College of Medicine, priority 2014, published 2017)
